# From patent publication US10517870B2, “Aryl substituted bicycle heteroaryl compounds” (Bristol-Myers Squibb Company, priority 2015, dated 2019)
# Columns and labels:
# PAR4 = molecular target: T1, PAR4 (Homo sapiens, UniProt Q96RI0); test: PAR4 FLIPR assay (calcium mobilization, antagonist activity) in PAR4-expressing HEK293 cells; assay type: cell-based
# T1 construct: expressed in transfected cells; host or cells: HEK293 PAR4 Clone 1.2A
# T1 sequence (Q96RI0 18-385): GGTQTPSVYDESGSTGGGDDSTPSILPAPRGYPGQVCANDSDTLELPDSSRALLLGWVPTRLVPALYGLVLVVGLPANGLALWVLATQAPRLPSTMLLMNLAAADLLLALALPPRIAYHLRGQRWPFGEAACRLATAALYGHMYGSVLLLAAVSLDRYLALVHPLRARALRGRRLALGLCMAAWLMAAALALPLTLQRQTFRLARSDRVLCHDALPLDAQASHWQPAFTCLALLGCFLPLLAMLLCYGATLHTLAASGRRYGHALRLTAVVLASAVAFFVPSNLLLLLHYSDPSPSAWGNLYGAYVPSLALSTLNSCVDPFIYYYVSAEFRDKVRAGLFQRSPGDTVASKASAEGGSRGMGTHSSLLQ
# Description: The FLIPR assay is an exemplary in vitro assay for measuring the activity of the PAR4 antagonists of the present invention. In this assay, intracellular calcium mobilization is induced in PAR4 expressing cells by a PAR4 agonist and calcium mobilization is monitored.
# HEK293 cells stably expressing PAR4 were generated by a standard method of transfection of human PAR4 (F2R23) cDNA expression vector and selected based on PAR4 protein expression or mRNA expression. […] These cells also express endogenous PAR1 and can elicit calcium signal upon stimulation with PAR1 agonist peptide. Therefore, the same cells were also used to determine selectivity against PAR1 and agonist activity for both receptors. Cells from HEK293 PAR4 Clone 1.2A (BMS Arctic ID 383940) were propagated and used for calcium mobilization studies.
# FLIPR-based calcium mobilization assay in HEK293 cells was used to measure PAR4 antagonism, agonism, and selectivity against PAR1. The activity of the PAR4 antagonists of the present invention were tested in PAR4 expressing cells by monitoring H-Ala-Phe(4-F)-[…]NH2-induced intracellular calcium mobilization. Counter screens for agonist activity and PAR1 antagonist activity were also performed. Briefly, PAR1/PAR4-expressing HEK293 cells were grown in DMEM (Life Technology, Grand Island, N.Y.) containing 10% heat-inactivated FBS, 1% Penicillin-Streptomycin, 10 μg/mL blasticidin, and 100 μg/mL Zeocin at 37° C. with 5% CO2. Cells were plated overnight prior to the experiment in a black 384-well Purecoat Amine clear bottom plate (Becton Dickinson Biosciences, San Jose, Calif.) at 10,000 cells/well in 30 μL growth medium and incubated in a humidified chamber at 37° C. with 5% CO2 overnight. Prior to compound addition, the cell medium was replaced with 40 μL of IX calcium and magnesium-containing Hank's Balanced Saline Solution (HBSS) (with 20 mM HEPES) and 1:1000 diluted fluorescent calcium indicator (Codex Biosolutions, Gaithersburg, Md.). After a 30 minute incubation period at 37° C., and a further 30 minute incubation and equilibration period at room temperature, 20 μL test compound (diluted in 1×HBSS buffer) was added at various concentrations at 0.17% dimethyl sulfoxide (DMSO) final concentration. Changes in fluorescence intensity were measured using a Functional Drug Screening System (FDSS, Hamamatsu, Japan) to determine agonist activities. The cells were then incubated for 30 minutes at room temperature followed by addition of 20 μL of agonist peptide for antagonist activity measurement. […] Compound potency was derived from 11-point concentration-response curves.
# Caski (HPV16+) cells = test: Cell proliferation/viability assay, Caski cells; assay type: cell-based; details: Homo sapiens, Ca-Ski, 96 h, 4 days
# Protocol: Caski (catalog number CRL-1550), SiHa (catalog number HTB-35), C33A (catalog number HTB-31), Saos-2 (ATCC HTB-85), and Hela (catalog number CCL-2) cells were obtained from the American Type Culture Collection (ATCC). The human cervical carcinoma cell lines Caski. SiHa, Hela and C33A, and the human osteosarcoma cell line Saos-2, and the human keratinocyte cell line HaCaT were cultured in Dulbecco's Modified Eagle Medium (DMEM, Invitrogen catalog number 11965-092) supplemented with 10% fetal bovine serum. The colorectal carcinoma cell line HCT-116 was cultured in Roswell Park Memorial Institute-1640 Medium (Invitrogen catalog number 11875-093) supplemented with 10% FBS. All cells were incubated at 37° C. in a humidified atmosphere with 5% CO2 in air. To establish the SCHPV-18 cell line, one million primary neonatal human foreskin keratinocytes (Invitrogen, catalog no. C-001-5C), cultured in KBM Gold-keratinocvte cell basal medium (Lonza, catalog no. 192060), were electroporated with 5 μg HPV-18 plasmid DNA (ATCC catalog no. 45152D) using the Amaxa Nucleofector II on setting T-007. Cells were co-transfected with 2 μg plasmid pZSGreen1-N1 (Clontech catalog no. 632448) encoding G418 resistance, and cells were selected for four days in 100 μg/ml G418, after which selection was removed. Cells were maintained in culture six months prior to compound testing. Integration of the HPV 18 genome was confirmed by Southern blot. Control cells transfected in parallel with pZSGreen1-N1 alone became senescent four days after selection and the culture could not be expanded. SCHPV-18 cells were maintained in E medium (Fehrmann F, Laimins L A. Human papillomavirus type 31 life cycle: methods for study using tissue culture models. Methods Mol Biol 2005; 292:317-330).
# For proliferation assays, cells were plated in white polystyrene 96-well plates (Costar catalog number 3917) for CellTiter Glo viability assays or 96-well special optics plates (Costar cat #3614) for CellTiter Blue viability assays. Cells were plated in the appropriate growth medium without antibiotics. Two hours after cell plating, a 200× compound stock diluted in DMSO was added to a final concentration of 0.5%. Plates were incubated at 37° C., for 4 days and then cell viability was assessed using either CellTiter Blue (Promega catalog number G8081) or CellTiter Glo (Promega catalog number G7572) according to the manufacturer's instructions. For the CellTiter Blue viability assay, data was collected using the SpectraMax Gemini EM (Molecular Devices) with an excitation wavelength of 530 nm and emission wavelength of 590 nm. For the CellTiter Glo viability assay, data was collected using the Envision Mulitlabel Reader (Perkin Elmer catalog number 2104-0010). To calculate IC50 and EC50 values, percent inhibition curves were fit using a four-parameter logistic formula [y=A+[…]], where A and B denote minimal and maximal % inhibition, respectively, C is the IC50 value, D is the Hill slope, and x represents compound concentration.
# Table C, below, sets out the results obtained employing various compounds of the invention tested for their effects on proliferation of such cells. Caski or SiHa cells, transformed by HPV 16, Hela cells, transformed by HPV 18, or HPV-negative control cell lines (Saos-2 or C33a) were treated with various compounds. […] Unlike the HPV-negative Saos-2 or C33a cell lines, the HPV-transformed cell lines rely on the presence of HPV for their continued proliferation. Therefore, a comparison of IC50 values from HPV-transformed cell lines with IC50 values obtained from HPV-negative cell lines can be used to test for compound selectivity.
structure (smiles),measurement,setting,value
"COc1ccc(-c2cc(C)cc3nc(OC(F)F)cnc23)cc1 [Example 6, 2-(difluoromethoxy)-5-(4-methoxyphenyl)-7-methylquinoxaline]",IC50,PAR4,2.4 µM
same,IC50,Caski (HPV16+) cells,7.1 µM
